In the CheMixHub viscosity set:
Where “and” joins values, the source holds several entries; their conditions need not be identical. Equal values may be shown once. ± gives the uncertainty stated by the source.

Experiments:
[1] = xn = mol fraction of the nth substance listed

CC(=O)CC(C)C
viscosity
Settings	293.15 K	298.15 K	303.15 K	308.15 K	313.15 K	318.15 K	323.15 K
100 kPa	0.59 ± 0.05 mPa·s	–	0.53 ± 0.04 mPa·s	–	0.47 ± 0.04 mPa·s	–	0.42 ± 0.03 mPa·s
101 kPa	0.575 mPa·s	0.543 mPa·s and 0.54 ± 0.017 mPa·s and 0.543 ± 0.007 mPa·s	–	0.494 mPa·s and 0.476 ± 0.016 mPa·s and 0.456 ± 0.021 mPa·s	0.443 ± 0.1 mPa·s	–	0.401 ± 0.1 mPa·s
101.3 kPa	–	0.543 ± 0.015 mPa·s	0.519 ± 0.014 mPa·s	–	0.467 ± 0.013 mPa·s	–	–
101.32 kPa	0.5848 ± 0.0071 mPa·s	0.5463 ± 0.0066 mPa·s	–	0.4871 ± 0.006 mPa·s	–	–	–
101.33 kPa	0.5848 ± 0.0071 mPa·s and 0.586 ± 0.006 mPa·s	0.5463 ± 0.0066 mPa·s and 0.542 ± 0.007 mPa·s	0.52 ± 0.005 mPa·s	0.4871 ± 0.0059 mPa·s and 0.505 ± 0.007 mPa·s	–	0.447 ± 0.006 mPa·s	–

CC(C)CC(=O)CC(C)C
100 kPa
Settings	viscosity [mPa·s]
293.15 K	0.95 ± 0.03
298.15 K	0.905 ± 0.028
303.15 K	0.86 ± 0.03
308.15 K	0.81 ± 0.03
313.15 K	0.76 ± 0.02
318.15 K	0.72 ± 0.02
323.15 K	0.67 ± 0.02

CC(C)CC(C)(C)C
viscosity
Settings	293.15 K	298.15 K	303.15 K	308.15 K	313.15 K	318.15 K	323.15 K
100 kPa	–	0.492 ± 0.01 mPa·s	–	0.45 ± 0.01 mPa·s	0.431 ± 0.009 mPa·s	–	–
101 kPa	0.498 ± 0.013 mPa·s	–	0.451 ± 0.01 mPa·s and 0.445 ± 0.0047 mPa·s	0.428 ± 0.009 mPa·s and 0.427 ± 0.008 mPa·s	–	0.378 ± 0.008 mPa·s	0.364 ± 0.008 mPa·s and 0.3593 ± 0.0043 mPa·s
101.33 kPa	–	0.462 ± 0.013 mPa·s and 0.492 ± 0.004 mPa·s and 0.4842 ± 0.0045 mPa·s	–	0.412 ± 0.012 mPa·s and 0.441 ± 0.003 mPa·s	0.391 ± 0.012 mPa·s and 0.4056 ± 0.0043 mPa·s	0.381 ± 0.011 mPa·s and 0.3848 ± 0.0042 mPa·s	–

CC=Cc1ccc2c(c1)OCO2
Settings	viscosity [mPa·s]
298.15 K, 101 kPa	3.981 ± 0.048

CCC(C)N (centres undefined)
viscosity
Settings	298.15 K	303.15 K	308.15 K	313.15 K	318.15 K	323.15 K
101 kPa	–	0.4024 ± 0.0036 mPa·s	0.3996 ± 0.041 mPa·s and 0.3996 ± 0.0055 mPa·s	–	–	–
101.33 kPa	0.4176 ± 0.0038 mPa·s	0.3884 ± 0.0036 mPa·s	0.3659 ± 0.0035 mPa·s	0.3465 ± 0.0033 mPa·s	0.3274 ± 0.0032 mPa·s	0.3104 ± 0.0031 mPa·s

CCC12CC3CC(CC(C3)C1)C2
100 kPa
Settings	viscosity [mPa·s]
293.15 K	6.43 ± 0.26
298.15 K	5.606 ± 0.23
303.15 K	4.931 ± 0.2
308.15 K	4.365 ± 0.18
313.15 K	3.887 ± 0.16

CCCC(=O)[O-].CC[NH+](CC)CCO
101 kPa
Settings	viscosity [mPa·s]
293.15 K	71.57 ± 1.6
298.15 K	53.96 ± 1.1
303.15 K	41.42 ± 0.89
308.15 K	32.34 ± 0.69
313.15 K	25.64 ± 0.55
318.15 K	20.63 ± 0.44
323.15 K	16.82 ± 0.36

CCCCCC(=O)O
Settings	viscosity [mPa·s]
298.15 K, 101 kPa	2.814 ± 0.073
323.15 K, 101.33 kPa	1.762 ± 0.022

CCCCCCCCCCCCCC[P+](CCCCCC)(CCCCCC)CCCCCC.c1nnc[n-]1
100 kPa
Settings	viscosity [mPa·s]
293.15 K	1320 ± 90
298.15 K	918 ± 56
303.15 K	654 ± 35
308.15 K	477 ± 23
313.15 K	354 ± 15
318.15 K	269 ± 10
323.15 K	209 ± 7

CCCCCCO
viscosity
Settings	100 kPa	101 kPa	101.3 kPa	101.33 kPa
293.15 K	5.36 ± 0.97 mPa·s and 5.363 ± 0.063 mPa·s and 5.273 ± 0.061 mPa·s	4.963 ± 0.03 mPa·s	5.361 ± 0.12 mPa·s	4.993 ± 0.061 mPa·s
298 K	4.502 ± 0.07 mPa·s	–	–	–
298.15 K	4.45 ± 0.8 mPa·s	–	4.342 ± 0.052 mPa·s and 4.403 ± 0.1 mPa·s	–
303 K	–	–	–	3.82 ± 0.05 mPa·s
303.15 K	3.883 ± 0.11 mPa·s	–	3.69 ± 0.045 mPa·s	–
308 K	–	–	–	3.3 ± 0.05 mPa·s
308.15 K	–	–	3.139 ± 0.038 mPa·s and 3.604 ± 0.084 mPa·s	–
313 K	–	2.903 ± 0.076 mPa·s	–	2.87 ± 0.04 mPa·s and 2.82 ± 0.069 mPa·s
313.15 K	2.9 ± 0.52 mPa·s and 2.896 ± 0.034 mPa·s	2.86 ± 0.089 mPa·s and 3.451 ± 0.69 mPa·s and 2.934 ± 0.024 mPa·s	–	–
318.15 K	2.571 ± 0.03 mPa·s and 2.656 ± 0.074 mPa·s	2.397 ± 0.24 mPa·s and 2.656 ± 0.092 mPa·s	2.655 ± 0.066 mPa·s	2.601 ± 0.11 mPa·s
323 K	–	–	–	2.183 ± 0.047 mPa·s
323.15 K	2.2 ± 0.4 mPa·s	2.072 ± 0.067 mPa·s	–	2.267 ± 0.093 mPa·s

CCCC[n+]1ccccc1.F[B-](F)(F)F
101.3 kPa
Settings	viscosity
293.15 K	223 ± 45 mPa·s and 223.1 ± 13 mPa·s
298.15 K	163 ± 33 mPa·s and 163.3 ± 7.9 mPa·s
303.15 K	121 ± 24 mPa·s and 123 ± 5 mPa·s
308.15 K	92.8 ± 19 mPa·s and 94.21 ± 3.3 mPa·s
313.15 K	72.3 ± 14 mPa·s and 70.29 ± 2.1 mPa·s
318.15 K	57.4 ± 12 mPa·s and 55.81 ± 1.6 mPa·s
323.15 K	46.3 ± 9.3 mPa·s and 45.12 ± 1.4 mPa·s

CCOCC
viscosity
Settings	293.15 K	298.15 K	303.15 K	303.16 K
101 kPa	0.239 ± 0.006 mPa·s	–	0.212 ± 0.006 mPa·s	0.2193 ± 0.041 mPa·s and 0.2193 ± 0.081 mPa·s
101.33 kPa	0.25 ± 0.007 mPa·s	0.225 ± 0.0016 mPa·s	–	–

CCS
Settings	viscosity [mPa·s]
298.15 K, 101 kPa	0.2091 ± 0.0019

O=C(OCc1ccccc1)c1ccccc1O
Settings	viscosity [mPa·s]
303.15 K, 101 kPa	6.722 ± 0.075

O=C1CCCCC1
Settings	viscosity
293.15 K, 101.3 kPa	2.546 ± 0.029 mPa·s
293.15 K, 101.33 kPa	2.315 ± 1 mPa·s
298.15 K, 101.3 kPa	1.963 ± 0.025 mPa·s
303.15 K, 101.3 kPa	1.768 ± 0.022 mPa·s and 1.915 ± 0.022 mPa·s
308.15 K, 101 kPa	1.631 ± 0.021 mPa·s and 1.632 ± 0.038 mPa·s and 1.632 ± 0.077 mPa·s
308.15 K, 101.3 kPa	1.602 ± 0.02 mPa·s and 1.585 ± 0.025 mPa·s
313.15 K, 100 kPa	1.481 ± 0.1 mPa·s
313.15 K, 101 kPa	1.476 ± 0.016 mPa·s and 1.476 ± 0.019 mPa·s and 1.481 ± 0.07 mPa·s
318.15 K, 100 kPa	1.285 ± 0.1 mPa·s
318.15 K, 101 kPa	1.285 ± 0.062 mPa·s and 1.373 ± 0.032 mPa·s and 1.373 ± 0.066 mPa·s
318.15 K, 101.33 kPa	1.311 ± 0.017 mPa·s

OCCOc1ccccc1
101 kPa
Settings	viscosity [mPa·s]
303.15 K	12.86 ± 0.33
313.15 K	9.235 ± 0.25
323.15 K	5.927 ± 0.18

CCC(C)N (centres undefined) + O
viscosity [mPa·s], [1], 101.33 kPa
Settings	x1 = 0.1	x1 = 0.1999	x1 = 0.3	x1 = 0.3998	x1 = 0.4994	x1 = 0.5999	x1 = 0.6998	x1 = 0.7997	x1 = 0.8999
298.15 K	2.276 ± 0.014	2.556 ± 0.015	2.232 ± 0.014	1.774 ± 0.011	1.322 ± 0.0092	0.9973 ± 0.0072	0.7605 ± 0.0058	0.5992 ± 0.0049	0.4885 ± 0.0042
303.15 K	1.937 ± 0.012	2.173 ± 0.013	1.917 ± 0.012	1.538 ± 0.01	1.165 ± 0.0081	0.8899 ± 0.0065	0.6906 ± 0.0053	0.552 ± 0.0045	0.4543 ± 0.004
308.15 K	1.669 ± 0.01	1.865 ± 0.011	1.659 ± 0.01	1.341 ± 0.0089	1.033 ± 0.0073	0.8024 ± 0.0059	0.6317 ± 0.0049	0.5102 ± 0.0043	0.4248 ± 0.0038
313.15 K	1.453 ± 0.009	1.616 ± 0.01	1.443 ± 0.0092	1.18 ± 0.0079	0.921 ± 0.0065	0.7245 ± 0.0054	0.5794 ± 0.0046	0.4736 ± 0.004	0.3983 ± 0.0036
318.15 K	1.275 ± 0.008	1.417 ± 0.0089	1.269 ± 0.0082	1.047 ± 0.0071	0.8266 ± 0.0059	0.6602 ± 0.005	0.534 ± 0.0043	0.4409 ± 0.0038	0.3744 ± 0.0034
323.15 K	1.138 ± 0.0072	1.25 ± 0.0082	1.123 ± 0.0074	0.9361 ± 0.0064	0.7467 ± 0.0054	0.61 ± 0.0047	0.4935 ± 0.004	0.4113 ± 0.0036	0.3528 ± 0.0033

Cc1cn([C@H]2CC(O)[C@@H](CO)O2)c(=O)[nH]c1=O (some centres undefined) + O
viscosity [mPa·s], [1], 101.3 kPa
Settings	x1 = 9.02e-05	x1 = 0.000159	x1 = 0.0002266	x1 = 0.0003081	x1 = 0.0004541	x1 = 0.0004775
298.15 K	0.893 ± 0.025	0.894 ± 0.025	0.895 ± 0.025	0.897 ± 0.025	0.899 ± 0.026	0.9 ± 0.026
308.15 K	0.721 ± 0.025	0.722 ± 0.025	0.723 ± 0.025	0.724 ± 0.025	0.726 ± 0.025	0.727 ± 0.025
318.15 K	0.598 ± 0.024	0.598 ± 0.024	0.599 ± 0.024	0.6 ± 0.024	0.602 ± 0.024	0.602 ± 0.024

O=[PH2][O-].O=[PH2][O-].[Mn+2] + O
Settings	viscosity [mPa·s]
[1], 298.15 K, 101.33 kPa, x1 = 0.0137	1.68 ± 0.04
